Measurements from the supplement of paper PMC11061612.

Columns and labels:
[1] = tested on: NB(TU)1-10 (Neuroblastoma); test: Bliss excess, mean over the matrix (fraction); higher = more synergy
Summary of the method: (§1)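 Cell lines in DMEM/F12 or RPMI with 10% FBS were plated in 1536-well plates, held 24 hours at 37°C, 5% CO2, then given two-drug dose matrices for 72 hours (DMSO typically 0.2%). Viability was read by CellTiter-Glo 2.0 luminescence and scaled as inhibition from 0 (vehicle wells) to 1 (blank wells). Combination Emax is the second-highest inhibition in the matrix; Bliss excess is observed combination effect minus expected EA + EB − EA·EB, EA and EB being single-agent effects.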

[2] = tested on: SW1088 (Low Grade Glioma); test: combination Emax (second highest fraction inhibited in the dose matrix, 72 h); higher = more inhibition; extreme values may be limits of the assay
Summary of the method: as §1

[3] = tested on: NB(TU)1-10 (Neuroblastoma); test: as above
Summary of the method: as §1

[4] = tested on: COR-L95 (Small Cell Lung Carcinoma); test: as above
Summary of the method: as §1
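Wherever Bliss excess, mean over the matrix is given: after 72 h of two-drug dosing.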

| SMILES | Bliss excess [1] | combination Emax [2] | combination Emax [3] | combination Emax [4] |
| --- | --- | --- | --- | --- |
| C[C@@H]1COCCN1c1cc(C2([S@](C)(=N)=O)CC2)nc(-c2ccnc3[nH]ccc23)n1 [AZD6738] + O=C(c1cc(Cc2n[nH]c(=O)c3ccccc23)ccc1F)N1CCN(C(=O)C2CC2)CC1 [Olaparib] (first compound max 10 µM, 7x7, partner max 10 µM) | 0.0254 | 0.501 | 0.751 | 0.517 |
| CCc1c2c(nc3ccc(O)cc13)-c1cc3c(c(=O)n1C2)COC(=O)[C@]3(O)CC [SN-38] + CN(C)CCCOc1ccc(-c2ccc3ncc4c(c3c2)n(C2CCOCC2)c(=O)n4C)cn1 [AZD0156] (first compound max 0.3 µM, 7x7, partner max 1 µM) | -0.0787 | 0.54 | 0.805 | 0.789 |
| C=CCn1c(=O)c2cnc(Nc3ccc(N4CCN(C)CC4)cc3)nc2n1-c1cccc(C(C)(C)O)n1 [AZD1775] + O=C(c1cc(Cc2n[nH]c(=O)c3ccccc23)ccc1F)N1CCN(C(=O)C2CC2)CC1 [Olaparib] (first compound max 1 µM, partner max 10 µM) | 0.0461 | 0.59 | 0.815 | 0.639 |
| CCN(CCO)CCCOc1ccc2c(Nc3cc(CC(=O)Nc4cccc(F)c4)[nH]n3)ncnc2c1 [AZD2811] + O=C(c1cc(Cc2n[nH]c(=O)c3ccccc23)ccc1F)N1CCN(C(=O)C2CC2)CC1 [Olaparib] (first compound max 1 µM, 7x7, partner max 10 µM) | 0.0344 | 0.616 | 0.257 | 0.436 |
| CCN(CCO)CCCOc1ccc2c(Nc3cc(CC(=O)Nc4cccc(F)c4)[nH]n3)ncnc2c1 [AZD2811] + C[C@@H]1COCCN1C2=NC(=NC(=C2)C3(CC3)[S@](=N)(=O)C)C4=C5C=CNC5=NC=C4 [AZD6738] (first compound max 1 µM, 7x7, partner max 10 µM) | -0.063 | 0.566 | 0.756 | 0.533 |
| CN(C)CCCOc1ccc(-c2ccc3ncc4c(c3c2)n(C2CCOCC2)c(=O)n4C)cn1 [AZD0156] + C=CCn1c(=O)c2cnc(Nc3ccc(N4CCN(C)CC4)cc3)nc2n1-c1cccc(C(C)(C)O)n1 [AZD1775] (first compound max 1 µM, partner max 1 µM) | 0.014 | 0.425 | 0.857 | 0.623 |
| COc1cc2c(cc1OCCCCCOc1cc3c(cc1OC)C(=O)N1C=C(C)C[C@H]1C=N3)N=C[C@@H]1CC(C)=CN1C2=O [SG3199] + O=C(c1cc(Cc2n[nH]c(=O)c3ccccc23)ccc1F)N1CCN(C(=O)C2CC2)CC1 [Olaparib] (first compound max 0.001 µM, 7x7, partner max 10 µM) | -0.0149 | 0.151 | 0.187 | 0.431 |
| CCc1c2c(nc3ccc(O)cc13)-c1cc3c(c(=O)n1C2)COC(=O)[C@]3(O)CC [SN-38] + O=C(c1cc(Cc2n[nH]c(=O)c3ccccc23)ccc1F)N1CCN(C(=O)C2CC2)CC1 [Olaparib] (first compound max 0.3 µM, 7x7, partner max 10 µM) | 0.0289 | 0.434 | 0.805 | 0.85 |
| Cc1cc2ncnn2cc1Nc1ncc2c(n1)n(C1CCOCC1)c(=O)n2C [AZD7648] + C=CCn1c(=O)c2cnc(Nc3ccc(N4CCN(C)CC4)cc3)nc2n1-c1cccc(C(C)(C)O)n1 [AZD1775] (first compound max 10 µM, partner max 1 µM) | -0.062 | 0.504 | 0.824 | 0.583 |
| Cc1cc2ncnn2cc1Nc1ncc2c(n1)n(C1CCOCC1)c(=O)n2C [AZD7648] + CN(C)CCCOc1ccc(-c2ccc3ncc4c(c3c2)n(C2CCOCC2)c(=O)n4C)cn1 [AZD0156] (first compound max 10 µM, 7x7, partner max 1 µM) | 0.0361 | 0.419 | 0.322 | 0.233 |
| COc1cccc(OCCCN)c1-c1cc(Nc2cnc(C#N)cn2)n[nH]1 [Prexasertib] + O=C(c1cc(Cc2n[nH]c(=O)c3ccccc23)ccc1F)N1CCN(C(=O)C2CC2)CC1 [Olaparib] (first compound max 1 µM, 7x7, partner max 10 µM) | -0.0874 | 0.792 | 0.885 | 0.682 |
| COc1cccc(OCCCN)c1-c1cc(Nc2cnc(C#N)cn2)n[nH]1 [Prexasertib] + C=CCn1c(=O)c2cnc(Nc3ccc(N4CCN(C)CC4)cc3)nc2n1-c1cccc(C(C)(C)O)n1 [AZD1775] (first compound max 1 µM, partner max 1 µM) | -0.0039 | 0.848 | 0.965 | 0.736 |
